Results: patent US20250100962A1 (CITY OF HOPE, priority 2023, published 2025)

Experiments:
[1] = test system: CLOCK and Bmal1 interaction; assay: Co-immunoprecipitation of Bmal1 with Myc-CLOCK; format: cell-based
C2C12 myoblasts = assay: Wound healing assay of C2C12 myoblasts; format: cell-based, mouse; conditions: 8 and 24 hours; 0.2 to 1 μM; vs DMSO
Description: Cells were seeded at 12×10^5 concentration on 6 well plates until 90% coverage and treated with compounds as indicated and controls while maintained 10% FBS 1% PSG DMEM. Scratch wounds were made with disposable cells scrapers and pictures were taken at hours 0, 4, 8, 24 and 48 following scratch. The results were measured as percentage coverage over original wound area based on image quantification. Area of wound closure was measured using Image J software.

3T3-L1 preadipocytes = assay: Clock and Wnt gene expression in 3T3-L1 cells; format: cell-based; conditions: RT-qPCR
Description: RNA extraction and RT-qPCR analysis. PureLink RNA Mini Kit (Invitrogen) were used to isolate total RNA from cells. cDNA was generated using Revert Aid RT kit (ThermoFisher) and quantitative PCR was performed using SYBR Green Master Mix (Thermno Fisher) in triplicates on ViiA 7 Real-Time PCR System (Applied Biosystems). Relative expression levels were determined using the comparative Ct method with normalization to 361B4 as internal control.

`[H]/N=C(\N/C(=N/[H])NCCCCCCNC(=N)NC(=N)Nc1ccc(Cl)cc1)Nc1ccc(Cl)cc1` [CHX, chlorhexidine] was tested. Which “Bmal1 interaction with CLOCK C267 mutant” value ([1]; Cysteine to Alanine mutant of CLOCK) did it give?
Its value is “failed to increase Bmal1 interaction with CLOCK C267 mutant”.

What about the “Bmal1 immunoprecipitated by Myc-CLOCK (CLOCK/Bmal1 interaction)” value ([1]; wild-type CLOCK, CHX 0.5 and 1 μM) of the same molecule?
Its value is “sufficient to augment their interaction”.

And the “wound area closure (migration)” value (C2C12 myoblasts)?
The value was “significantly increased”.

And the “core clock gene expression” value (3T3-L1 preadipocytes)?
Its value is “Largely similar effects on inducing core clock genes”.
